pIC50, pKi: −log10 of the molar value. Like-named read-outs stand apart in the source and are kept apart here.
How the values were obtained:
spleen cells = test: Cytokine modulation in spleen cells (IFN-γ); format: cell-based, BALB/c mice; conditions: for IFN-γ: Table 3.2
Procedure: BALB/c male and female mice bred and maintained at the University of Strathclyde under conventional conditions were used at varying age.
Cells suspensions were prepared by using the end of a syringe and grinding the spleen through a wire mesh. The cell suspension was then centrifuged at 1000 rpm for 5 minutes. To remove the erythrocytes, the cell pellet was resuspended in Boyle's solution (Tris 0.17M & Ammonium Chloride 0.16M) and centrifuged again for 5 minutes. The pellet was then washed in medium a further two times, then resuspended in 3 mls medium. A cell count was then carried out.
All spleen cell experiments were carried out in 96-well tissue culture plates. […] Unstimulated wells contained 100 μl of cells and 100 μl of medium. The stimulated wells contained 100 μl of cells plus 50 μl of LPS at 1 μg/ml or 50 μl anti-CD3 at 0.5 μg/ml and 50 μl of medium. The remaining wells contained 100 μl cells, 5 μl of MNLP compound and either 50 μl of anti-CD3 or medium alone.
The appropriate Mabs and standards were used according to the protocol described for IL-12 (described in Example 1, above).

α-D-glucosidase [1] = target: T1, α-D-glucosidase (Saccharomyces cerevisiae, UniProt P53341); test: Glycosidase inhibition (p-nitrophenyl substrate): α-D-glucosidase, yeast; format: biochemical, Saccharomyces cerevisiae (Baker's yeast); conditions: for inhibition at 1000 µg/mL: 1 mg/ml
T1 construct: purchased Sigma
T1 sequence (P53341 whole entry): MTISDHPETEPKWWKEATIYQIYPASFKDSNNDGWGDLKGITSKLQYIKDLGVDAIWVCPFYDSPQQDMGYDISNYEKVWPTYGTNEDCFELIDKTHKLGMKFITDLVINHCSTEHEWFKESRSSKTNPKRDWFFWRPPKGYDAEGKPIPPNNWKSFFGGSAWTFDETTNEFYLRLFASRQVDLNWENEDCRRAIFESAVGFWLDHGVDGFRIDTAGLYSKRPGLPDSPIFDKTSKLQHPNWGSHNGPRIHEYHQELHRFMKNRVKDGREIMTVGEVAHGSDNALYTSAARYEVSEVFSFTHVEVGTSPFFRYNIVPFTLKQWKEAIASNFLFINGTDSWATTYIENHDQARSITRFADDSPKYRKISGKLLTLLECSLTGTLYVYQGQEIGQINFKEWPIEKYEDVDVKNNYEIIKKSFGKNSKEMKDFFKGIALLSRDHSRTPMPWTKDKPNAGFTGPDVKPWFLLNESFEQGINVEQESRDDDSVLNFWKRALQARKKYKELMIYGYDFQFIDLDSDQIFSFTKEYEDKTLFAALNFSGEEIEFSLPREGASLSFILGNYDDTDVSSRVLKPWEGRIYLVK
Procedure: (§1) All enzymes were purchased from Sigma, as were the appropriate p-nitrophenyl substrates. Assays were carried out in microtitre plates. Enzymes were assayed in 0.1M citric acid/0.2M di-sodium hydrogen phosphate (McIlvaine) buffers at the optimum pH for the enzyme. All assays were carried out at 20° C. For screening assays the incubation assay consisted of 10 μl of enzyme solution, 10 μl of inhibitor solution (made up in water) and 50 μl of the appropriate 5 mM p-nitrophenyl substrate (3.57 mM final conc.) made up in McIlvaine buffer at the optimum pH for the enzyme.
(§2) The reactions were stopped with 0.4M glycine (pH 10.4) during the exponential phase of the reaction, which was determined at the beginning of the assay using blanks with water, which were incubated for a range of time periods to measure the reaction rate using 5 mM substrate solution. Endpoint absorbances were read at 405 nm with a Biorad microtitre plate reader (Benchmark). Water was substituted for the inhibitors in the blanks.

α-D-glucosidase [2] = target: T2, α-D-glucosidase (Oryza sativa subsp. japonica, UniProt Q653V7); test: Glycosidase inhibition: α-D-glucosidase, rice; format: biochemical, rice (Oryza sativa); conditions: 1 mg/ml
T2 construct: purchased Sigma
T2 sequence (Q653V7 34-885): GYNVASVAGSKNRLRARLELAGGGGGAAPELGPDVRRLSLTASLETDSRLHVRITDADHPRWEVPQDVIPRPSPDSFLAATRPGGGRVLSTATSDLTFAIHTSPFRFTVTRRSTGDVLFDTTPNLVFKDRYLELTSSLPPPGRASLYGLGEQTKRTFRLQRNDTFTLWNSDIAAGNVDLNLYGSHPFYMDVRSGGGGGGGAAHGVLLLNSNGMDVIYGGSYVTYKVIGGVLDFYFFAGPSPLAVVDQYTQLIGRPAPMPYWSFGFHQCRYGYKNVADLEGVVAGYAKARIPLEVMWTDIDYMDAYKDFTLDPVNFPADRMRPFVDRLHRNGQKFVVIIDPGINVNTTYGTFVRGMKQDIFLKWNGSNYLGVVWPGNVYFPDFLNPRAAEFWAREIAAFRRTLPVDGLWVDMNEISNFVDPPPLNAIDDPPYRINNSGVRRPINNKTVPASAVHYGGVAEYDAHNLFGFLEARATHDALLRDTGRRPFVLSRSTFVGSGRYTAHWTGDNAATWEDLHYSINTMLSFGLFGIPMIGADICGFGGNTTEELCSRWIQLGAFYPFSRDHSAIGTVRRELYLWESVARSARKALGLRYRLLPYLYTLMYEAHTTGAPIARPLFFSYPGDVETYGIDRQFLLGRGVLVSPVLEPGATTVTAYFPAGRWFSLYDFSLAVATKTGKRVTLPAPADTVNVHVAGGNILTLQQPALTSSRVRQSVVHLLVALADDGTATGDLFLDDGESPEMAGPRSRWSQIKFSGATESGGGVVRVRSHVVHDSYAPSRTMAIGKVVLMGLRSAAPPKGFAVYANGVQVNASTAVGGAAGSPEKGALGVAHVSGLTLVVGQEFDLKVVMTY
Procedure: as §1, §2

α-D-glucosidase [3] = test: Glycosidase inhibition: α-D-glucosidase, Bacillus; format: biochemical, Bacillus stearothermophilus; conditions: 1 mg/ml
Procedure: as §1, §2

β-D-glucosidase = test: Glycosidase inhibition: β-D-glucosidase, almond; format: biochemical, Almonds (Prunus sp.)
Procedure: as §1, §2

α-D-galactosidase = target: T3, α-D-galactosidase (Coffea arabica, UniProt Q42656); test: Glycosidase inhibition: α-D-galactosidase; format: biochemical, Green coffee beans (Coffea sp.); conditions: 1 mg/ml
T3 construct: purchased Sigma
T3 sequence (Q42656 16-378): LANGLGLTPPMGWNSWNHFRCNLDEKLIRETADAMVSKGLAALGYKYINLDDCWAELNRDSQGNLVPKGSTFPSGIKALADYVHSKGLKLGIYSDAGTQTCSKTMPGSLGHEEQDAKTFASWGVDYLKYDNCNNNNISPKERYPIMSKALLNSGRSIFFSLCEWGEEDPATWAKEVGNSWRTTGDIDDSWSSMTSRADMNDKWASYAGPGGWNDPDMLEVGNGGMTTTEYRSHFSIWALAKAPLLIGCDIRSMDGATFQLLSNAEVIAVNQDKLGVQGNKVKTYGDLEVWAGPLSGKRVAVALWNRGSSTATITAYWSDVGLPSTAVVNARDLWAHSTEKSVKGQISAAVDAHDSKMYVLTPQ
Procedure: as §1, §2

β-D-galactosidase = test: Glycosidase inhibition: β-D-galactosidase; format: biochemical, Bovine; conditions: 1 mg/ml
Procedure: as §1, §2

α-D-mannosidase = target: T4, α-D-mannosidase (Canavalia ensiformis, UniProt C0HJB3); test: Glycosidase inhibition: α-D-mannosidase; format: biochemical, Jack beans (Canavalia ensiformis)
T4 construct: purchased Sigma
T4 sequence (C0HJB3 whole entry): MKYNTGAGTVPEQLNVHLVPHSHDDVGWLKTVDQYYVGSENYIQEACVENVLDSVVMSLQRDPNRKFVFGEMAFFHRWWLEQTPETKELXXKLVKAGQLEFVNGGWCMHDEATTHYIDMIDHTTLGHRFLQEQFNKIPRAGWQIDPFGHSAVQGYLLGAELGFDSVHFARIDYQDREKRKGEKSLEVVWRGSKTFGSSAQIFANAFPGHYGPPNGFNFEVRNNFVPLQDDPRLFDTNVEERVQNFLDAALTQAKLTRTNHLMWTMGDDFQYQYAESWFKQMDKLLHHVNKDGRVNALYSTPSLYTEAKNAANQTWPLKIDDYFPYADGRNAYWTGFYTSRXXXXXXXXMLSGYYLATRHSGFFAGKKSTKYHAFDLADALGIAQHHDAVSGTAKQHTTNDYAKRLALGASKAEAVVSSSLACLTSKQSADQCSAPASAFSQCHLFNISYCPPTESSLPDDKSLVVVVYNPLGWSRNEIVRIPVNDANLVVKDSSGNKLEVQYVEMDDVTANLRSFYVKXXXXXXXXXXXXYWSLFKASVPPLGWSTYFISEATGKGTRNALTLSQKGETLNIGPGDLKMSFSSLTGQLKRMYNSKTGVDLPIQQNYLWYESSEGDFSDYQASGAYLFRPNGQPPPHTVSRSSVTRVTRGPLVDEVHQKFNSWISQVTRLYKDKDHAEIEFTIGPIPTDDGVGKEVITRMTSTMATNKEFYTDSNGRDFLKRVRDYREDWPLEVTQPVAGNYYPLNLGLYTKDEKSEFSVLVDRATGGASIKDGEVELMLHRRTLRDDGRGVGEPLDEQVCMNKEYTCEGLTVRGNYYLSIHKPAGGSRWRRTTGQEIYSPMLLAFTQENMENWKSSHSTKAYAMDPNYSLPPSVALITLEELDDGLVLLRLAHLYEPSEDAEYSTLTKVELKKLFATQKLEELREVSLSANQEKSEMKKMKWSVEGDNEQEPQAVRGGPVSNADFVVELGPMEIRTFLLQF
Procedure: All enzymes were purchased from Sigma, as were the appropriate p-nitrophenyl substrates. Assays were carried out in microtitre plates. Enzymes were assayed in 0.1M citric acid/0.2M di-sodium hydrogen phosphate (McIlvaine) buffers at the optimum pH for the enzyme. All assays were carried out at 20° C.
Endpoint absorbances were read at 405 nm with a Biorad microtitre plate reader (Benchmark). Water was substituted for the inhibitors in the blanks.

α-L-fucosidase = target: T5, α-L-fucosidase (Bos taurus, UniProt Q2KIM0); test: Glycosidase inhibition: α-L-fucosidase; format: biochemical, Bovine; conditions: 1 mg/ml
T5 construct: purchased Sigma
T5 sequence (Q2KIM0 23-468): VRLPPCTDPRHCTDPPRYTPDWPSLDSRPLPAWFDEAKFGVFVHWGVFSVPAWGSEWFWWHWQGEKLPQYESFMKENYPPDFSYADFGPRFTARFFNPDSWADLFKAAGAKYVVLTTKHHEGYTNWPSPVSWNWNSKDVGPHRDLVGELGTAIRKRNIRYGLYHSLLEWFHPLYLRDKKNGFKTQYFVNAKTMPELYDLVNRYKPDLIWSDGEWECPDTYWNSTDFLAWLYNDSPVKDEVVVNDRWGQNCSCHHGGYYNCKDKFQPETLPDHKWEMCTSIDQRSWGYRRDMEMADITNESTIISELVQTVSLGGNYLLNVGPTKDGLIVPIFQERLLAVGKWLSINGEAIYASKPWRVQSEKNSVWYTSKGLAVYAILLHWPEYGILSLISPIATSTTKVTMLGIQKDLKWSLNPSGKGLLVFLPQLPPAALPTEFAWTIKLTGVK
Procedure: as §1, §2

Naringinase = test: Glycosidase inhibition: Naringinase; format: biochemical, Penecillium decumbens; conditions: 1 mg/ml
Procedure: as §1, §2

[4] = test system: N-acetyl-β-D-glucosaminidase; test: Glycosidase inhibition: N-acetyl-β-D-glucosaminidase; format: biochemical, Bovine; conditions: 1 mg/ml
Procedure: as §1, §2

[5] = target: rabbit gut mucosa α-D-glucosidase; test: Inhibition of rabbit gut mucosa α-D-glucosidase; format: biochemical
[6] = target: T6, rabbit small intestine sucrase (Oryctolagus cuniculus, UniProt P07768); test: Inhibition of rabbit small intestine sucrase; format: biochemical; conditions: 700 μM
T6 construct: from tissue; host or cells: rabbit small intestine
T6 sequence (P07768 1008-1827 limits assumed): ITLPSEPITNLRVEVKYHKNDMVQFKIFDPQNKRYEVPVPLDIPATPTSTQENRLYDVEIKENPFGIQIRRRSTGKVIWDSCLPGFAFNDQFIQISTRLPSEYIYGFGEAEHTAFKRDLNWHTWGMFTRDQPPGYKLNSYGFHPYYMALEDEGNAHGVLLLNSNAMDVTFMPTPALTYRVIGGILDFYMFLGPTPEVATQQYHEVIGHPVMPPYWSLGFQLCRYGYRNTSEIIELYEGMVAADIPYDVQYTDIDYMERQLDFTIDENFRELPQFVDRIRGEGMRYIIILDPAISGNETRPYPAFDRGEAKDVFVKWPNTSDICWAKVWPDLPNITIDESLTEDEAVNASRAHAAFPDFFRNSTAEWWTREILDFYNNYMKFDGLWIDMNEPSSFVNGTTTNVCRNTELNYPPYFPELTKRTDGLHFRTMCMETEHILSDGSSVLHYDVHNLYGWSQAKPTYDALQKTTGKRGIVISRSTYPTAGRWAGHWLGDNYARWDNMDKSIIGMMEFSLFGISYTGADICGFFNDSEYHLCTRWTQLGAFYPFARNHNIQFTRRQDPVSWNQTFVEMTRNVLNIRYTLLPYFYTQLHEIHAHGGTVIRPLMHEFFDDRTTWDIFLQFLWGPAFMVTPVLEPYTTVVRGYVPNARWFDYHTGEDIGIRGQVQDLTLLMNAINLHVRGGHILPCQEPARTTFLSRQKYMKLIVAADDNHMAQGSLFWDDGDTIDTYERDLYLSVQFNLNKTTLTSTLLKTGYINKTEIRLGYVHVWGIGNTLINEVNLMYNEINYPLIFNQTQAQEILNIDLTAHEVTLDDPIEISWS
T6 sequence (P07768 2-1007 partner limits assumed): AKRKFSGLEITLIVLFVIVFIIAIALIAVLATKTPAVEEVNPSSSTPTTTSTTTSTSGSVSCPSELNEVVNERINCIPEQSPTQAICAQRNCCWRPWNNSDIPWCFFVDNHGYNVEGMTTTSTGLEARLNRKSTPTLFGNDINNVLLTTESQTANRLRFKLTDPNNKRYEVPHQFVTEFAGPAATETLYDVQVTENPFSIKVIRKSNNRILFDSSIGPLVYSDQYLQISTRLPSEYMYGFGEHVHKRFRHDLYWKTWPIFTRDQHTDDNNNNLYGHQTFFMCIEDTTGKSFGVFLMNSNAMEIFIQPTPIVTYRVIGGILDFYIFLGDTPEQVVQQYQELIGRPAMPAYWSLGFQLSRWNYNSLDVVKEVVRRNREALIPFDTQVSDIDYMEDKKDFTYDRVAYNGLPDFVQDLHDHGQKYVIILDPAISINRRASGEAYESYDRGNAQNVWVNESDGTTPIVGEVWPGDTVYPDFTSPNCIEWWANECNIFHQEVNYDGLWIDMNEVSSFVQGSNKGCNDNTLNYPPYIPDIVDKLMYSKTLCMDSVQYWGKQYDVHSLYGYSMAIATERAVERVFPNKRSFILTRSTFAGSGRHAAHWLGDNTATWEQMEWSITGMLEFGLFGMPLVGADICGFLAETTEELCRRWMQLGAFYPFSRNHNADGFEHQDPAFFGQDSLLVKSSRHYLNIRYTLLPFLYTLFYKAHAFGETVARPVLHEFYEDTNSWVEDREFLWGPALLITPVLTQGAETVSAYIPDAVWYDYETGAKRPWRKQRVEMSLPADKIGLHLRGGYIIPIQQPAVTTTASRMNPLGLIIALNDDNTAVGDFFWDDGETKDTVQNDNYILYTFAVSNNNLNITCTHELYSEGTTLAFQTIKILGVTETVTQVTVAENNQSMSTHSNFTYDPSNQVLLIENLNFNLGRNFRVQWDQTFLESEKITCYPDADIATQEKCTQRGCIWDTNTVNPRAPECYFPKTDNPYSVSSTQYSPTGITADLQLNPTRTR

[7] = target: T7, rabbit small intestine lactase (Oryctolagus cuniculus, UniProt P09849); test: Inhibition of rabbit small intestine lactase; format: biochemical
T7 construct: from tissue; host or cells: rabbit small intestine

[8] = target: T8, rabbit small intestine trehalase (Oryctolagus cuniculus, UniProt P19813); test: Inhibition of rabbit small intestine trehalase; format: biochemical
T8 construct: from tissue; host or cells: rabbit small intestine

[9] = test system: Na^+-dependent D-glucose uptake; test: Na+-dependent D-glucose uptake into intestinal brush border membrane vesicles; format: biochemical, ovine
B16-F10 tumour cells = test: Control of lung metastasis in mice (B16-F10); format: in vivo, C57/bl6 mice; conditions: 50 mg/kg s/c on days 2 and 4; lungs on day 14
Procedure: Mice (C57/bl6 under i/p ketamine anaesthesia) were challenged i/v (tail vein) with 5×10^4 B16-F10 tumour cells in a final volume of 100 μl per mouse on day 0. Test compounds (50 mg/kg in 200 μl sterile non-pyrogenic saline) were administered sic (right flank) on days 2 and 4. On day 14 the mice were sacrifices and the lungs dissected and stained in Indian ink solution (150 ml bidistilled water, 30 ml India Ink, 4 drops NH4OH) for 10 minutes then fixed for at least 24 hr in Fakete's solution (90 ml 37% formaldehyde, 900 ml 70% EtOH and 45 ml glacial acetic acid). The metastases in the stained and fixed lungs could then be visualized, counted and photographed.

dendritic cells = test: Induction of IL-12 secretion in dendritic cells (ELISA); format: cell-based, BALB/c mice; conditions: 50 μg/ml
B16G/F10 melanoma cells = test: B16/F10 melanoma lung colonies in mice; format: in vivo, C57BL/6 mice
Procedure: There were 5 treatment groups in the study, with 6 mice arbitrarily allocated to each group. The treatment groups were as follows:
The dose volume was the daily intake for all animals. Test substances were administered to mice in Groups 2, 3, 4 and 5, as solutions in sterile water for 41 h 32 min prior to tumour cell injection (Day 0 is the day of tumour cell injection).
Mice were injected intravenously, via a tail vein, with 0.1 ml of a suspension of B16G/F10 melanoma cells (approximately 1×10^5 cells/mouse) on Day 0.
All dosing solutions were prepared on the first day of dosing (Day −2) and were kept at room temperature.
Mice: Female C57BL/6 mice were supplied and delivered by Charles River UK Limited. The animals were approximately 6-8 weeks of age on arrival. The animals were acclimatized for 29 days prior to the start of the study, and the body weights at the start of dosing were in the range 18-23 g. During the study, the animals were housed in groups of up to 6 in pediatric filter-topped cages with sawdust bedding (autoclaved for sterility). The room and cages were cleaned at regular intervals each week to maintain hygiene. The mice were fed an expanded rodent diet of RM1(E) SQC (batch number 3822; Special Diets Services, Witham, UK) ad libitum and allowed access to sterilized water (N.V. Nutricia, Zoetermeer, The Netherlands). For Groups 2, 3, 4 and 5, the drinking water also contained the appropriate level of test substance for the duration of the dosing period. […] During the acclimatization and study period the temperature range in the rooms was 18-22° C. and the humidity range was 44-79%.
Tumour challenge: B18F10 murine tumour cells (Shrayer D, Bogaars H. Hearing V. J. Maizel A. & Wanebo H. Further characterization of a clinically relevant model of melanoma metastasis and an effective vaccine. Cancer Immunology, Immunotherapy 1995: 40; 277-282) were harvested from sub-confluent cultures growing in vitro, using minimum trypsination. They were washed in sterile phosphate buffered saline (PBS) and the number of viable cells determined. Cells were resuspended in sterile PBS at a concentration of […]. The mice were intravenously injected, via a tail vein, with 0.1 ml of cell suspension (i.e. approximately 1×10^5 cells/mouse) on Day 0. The mice were examined daily for signs of laboured breathing or distress due to extensive metastatic disease. Mice were exposed to the appropriate test substance for 41 h 32 min prior to tumour cell injection (from Day −2 to Day 0). Following tumour cell implant, the test substances were removed, and animals in all groups received drinking water alone for the remainder of the study.
Sampling and analysis: The animals were terminated on Day 21 (21 days after injection of the tumour cells). Blood samples were taken from 3 mice from each group on the day of termination. Animals were anaesthetized with carbon dioxide and blood samples of maximal volume taken by cardiac puncture and collected in plain tubes. Samples were left to clot at room temperature for a minimum of 1 h prior to serum removal, Serum samples were stored at approximately −70° C. prior to analysis. Immediately after performing the bleeds, the spleens were removed from the 3 selected mice. The spleens from these mice were pooled in a petri dish with approximately 3-5 ml of RPMI 1640 tissue culture medium (batch number 3092202; Invitrogen, Paisley, UK) containing 0.52% penicillin/streptomycin (Pen/Strep; batch number 44K2412; Sigma Aldrich, Poole, UK) prior to splenocyte isolation. The spleens from each group were placed in a glass homogeniser with an additional 10-15 ml of medium and homogenised until opaque. The suspension was then placed in a 50 ml centrifuge tube. On occasions when there was significant cell debris, this was allowed to settle before removing the suspension and placing in a fresh tube. The homogenate was then centrifuged at approximately 200×‘g’ for 5 min at approximately 4° C.

[10] = read-out: % inhibition, mannosidase

## O[C@H]1[C@H](O)[C@@H](O)CN2CC[C@H](O)[C@H]12 [Castanospermine (20), Castanospermine, reference compound]
Spleen cells
  IFN-γ secretion/production in splenocytes: inhibits
Spleen cells; + αCD3
  IFN-γ: 9.0 ng/mL
Spleen cells; treatment alone
  IFN-γ: <1.0 ng/mL
α-D-glucosidase [1]; 800 μM
  inhibition of yeast α-D-glucosidase: not being inhibitory
α-D-glucosidase [1]; read-out: % inhibition, gluc (yeast)
  inhibition at 1000 µg/mL: -8%
α-D-glucosidase [2]; read-out: % inhibition, gluc (rice)
  inhibition at 1000 µg/mL: 77%
α-D-glucosidase [3]
  % inhibition, gluc (Bacillus): 6%
β-D-glucosidase
  pKi: 5.05
β-D-glucosidase; 1 mg/ml
  % inhibition, glucosidase: 88%
α-D-galactosidase; first galactosidase line, read-out: % inhibition, galactosidase
  inhibition at 1000 µg/mL: -3%
β-D-galactosidase; second galactosidase line
  % inhibition, galactosidase: 16%
α-D-mannosidase; [10]
  inhibition at 1000 µg/mL: 9%
α-L-fucosidase; read-out: % inhibition, fucosidase
  inhibition at 1000 µg/mL: 3%
Naringinase
  % inhibition, Naringinase: 39%
[4]
  % inhibition, N-acetyl-β-gluc: 16%
[5]
  pIC50: 5.10
[6]
  inhibition of rabbit small intestine sucrase: inhibited
[7]
  inhibition at 700 µM: > 50%
[8]
  inhibition at 700 µM: > 50%
[9]; initial rate, competition with labelled D-glucose, control 240
  Glucose uptake: 225 pmol/s/mg
[9]; versus control
  glucose transport, effect: slightly inhibited

## OCCN1[C@H](CO)[C@@H](O)[C@H](O)[C@H]1CO [N-hydroxyethyl DMDP, N-hydroxyethyl-2,5-dihydroxymethyl-3,4-dihydroxypyrrolidine]
α-D-glucosidase [1]; read-out: % inhibition, α-gluc (yeast)
  inhibition at 1000 µg/mL: 56%
α-D-glucosidase [2]; read-out: % inhibition, α-gluc (rice)
  inhibition at 1000 µg/mL: 43%
α-D-glucosidase [3]
  % inhibition, α-gluc (Bacillus): 85%
β-D-glucosidase; 1 mg/ml
  % inhibition, β-glucosidase: 64%
α-D-galactosidase; read-out: % inhibition, α-galactosidase
  inhibition at 1000 µg/mL: 7%
β-D-galactosidase
  % inhibition, β-galactosidase: 73%
α-D-mannosidase; read-out: % inhibition, α-mannosidase
  inhibition at 1000 µg/mL: 11%
α-L-fucosidase; read-out: % inhibition, α-fucosidase
  inhibition at 1000 µg/mL: -4%
Naringinase
  % inhibition, Naringinase: 22%
[4]
  % inhibition, N-acetyl-β-gluc: 13%
B16-F10 tumour cells
  Metastatic morphology: Metastasis restricted to apical tip of lung

## O[C@H]1[C@H]2[C@H](O)CCCN2C[C@H]1O [Swainsonine (4), Swainsonine, reference compound]
Dendritic cells
  induction of IL-12 secretion: failed to induce IL-12 secretion
α-D-mannosidase; [10]
  inhibition at 1000 µg/mL: 74%
B16G/F10 melanoma cells; 3 μg/ml in drinking water before tumour cell injection, Day 21, mean ± s.e.m.
  Colony Count: 21.33 ± 4.11
B16G/F10 melanoma cells; 3 μg/ml in drinking water, versus vehicle
  % Reduction: 69%

— US20090117083A1, “IMMUNOMODULATORY ALKALOIDS” (M N L PHARMA LIMITED, priority 2004, published 2009)
